The source of these data is US20170189294A1, “Non-Irritating, Non-Whitening Photoprotective Compositions” (Eveready Battery Company, Inc., priority 2013, published 2017).

The nature of data set [1]: solubility/compatibility and stability observations in the compositions. Format: physicochemical. Conditions: three (3) months at 40° C. From the text:
With regard to the photoprotective compositions of the present disclosure, it was observed that high levels of isohexadecane, especially those of about 70 wt. %, limited the solubility and/or compatibility of other ingredients which cause undesirable characteristics within the entire photoprotective composition such as, i.e., hazing, oily segregation, and/or precipitation from the composition, and combinations thereof. […] Dimethicone with a viscosity of about 350 cst at a 1 wt. % concentration, for example, causes hazing.

The nature of the next data set: flame extension test. To be noted: propellant. It counts as physicochemical. Here is the method: In one embodiment, the photoprotective composition concentrate and propellant are added to an aerosol container in a ratio of about 70:30 to about 60:40. The tetraflouroethane and difluoroethane propellants were tested and are non-flammable in view of the flame extension test.
In another embodiment, the photoprotective composition concentrate and propellant are added to an aerosol container in a ratio of about 70:30. The tetraflouroethane and isobutene propellants were evaluated to determine what blends of tetraflouroethane and isobutene propellants would provide a non-flammable product at a reasonable cost. […] In some embodiments having a photoprotective composition comprising a concentrate and at least one propellant, the ratio of the photoprotective composition and the propellant can be between about 2.5:1 and about 1.25:1.

As to `COc1ccc(C(=O)CC(=O)c2ccc(C(C)(C)C)cc2)cc1` [avobenzone], the storage stability entry in data set [1] is on record as “crystals appeared”.

Turning to `CC(F)F` [difluoroethane, 1,1-difluoroethane], the flammability result in the data set “flame extension test” was “non-flammable”.

As to `FCC(F)(F)F` [tetraflouroethane], the flammability result in the data set “flame extension test” is on record as “non-flammable”.
